Test results as given in paper PMC8952208, “Synthesis, Antiplasmodial, and Antileukemia Activity of Dihydroartemisinin–HDAC Inhibitor Hybrids as Multitarget Drugs” (Pharmaceuticals, 2022).

Legend:
human HDAC1 (hHDAC1) = target: T1, human HDAC1 (hHDAC1) (Homo sapiens, UniProt Q13547); experiment: In vitro human HDAC1 assay (ZMAL substrate); assay type: biochemical
T1 construct: purchased BPS Bioscience Inc. 50051
Protocol: (§1) OptiPlate-96 black microplates (Perkin Elmer Inc., Waltham, MA, USA) were used with an assay volume of 50 µL. […] After an incubation time of 90 min, 50 µL of 0.4 mg/mL trypsin in trypsin buffer (50 mM Tris-HCl, pH 8.0, and 100 mM NaCl) was added, followed by further incubation at 37 °C for 30 min.

human HDAC6 (hHDAC6) = target: T2, human HDAC6 (hHDAC6) (Homo sapiens, UniProt Q9UBN7); experiment: In vitro human HDAC6 assay (ZMAL substrate); assay type: biochemical; conditions: for SI 1/6: Selectivity Index = (hHDAC1 IC50)/(hHDAC6 IC50)
T2 construct: purchased BPS Bioscience Inc. 50006
T2 sequence (Q9UBN7 1-1215): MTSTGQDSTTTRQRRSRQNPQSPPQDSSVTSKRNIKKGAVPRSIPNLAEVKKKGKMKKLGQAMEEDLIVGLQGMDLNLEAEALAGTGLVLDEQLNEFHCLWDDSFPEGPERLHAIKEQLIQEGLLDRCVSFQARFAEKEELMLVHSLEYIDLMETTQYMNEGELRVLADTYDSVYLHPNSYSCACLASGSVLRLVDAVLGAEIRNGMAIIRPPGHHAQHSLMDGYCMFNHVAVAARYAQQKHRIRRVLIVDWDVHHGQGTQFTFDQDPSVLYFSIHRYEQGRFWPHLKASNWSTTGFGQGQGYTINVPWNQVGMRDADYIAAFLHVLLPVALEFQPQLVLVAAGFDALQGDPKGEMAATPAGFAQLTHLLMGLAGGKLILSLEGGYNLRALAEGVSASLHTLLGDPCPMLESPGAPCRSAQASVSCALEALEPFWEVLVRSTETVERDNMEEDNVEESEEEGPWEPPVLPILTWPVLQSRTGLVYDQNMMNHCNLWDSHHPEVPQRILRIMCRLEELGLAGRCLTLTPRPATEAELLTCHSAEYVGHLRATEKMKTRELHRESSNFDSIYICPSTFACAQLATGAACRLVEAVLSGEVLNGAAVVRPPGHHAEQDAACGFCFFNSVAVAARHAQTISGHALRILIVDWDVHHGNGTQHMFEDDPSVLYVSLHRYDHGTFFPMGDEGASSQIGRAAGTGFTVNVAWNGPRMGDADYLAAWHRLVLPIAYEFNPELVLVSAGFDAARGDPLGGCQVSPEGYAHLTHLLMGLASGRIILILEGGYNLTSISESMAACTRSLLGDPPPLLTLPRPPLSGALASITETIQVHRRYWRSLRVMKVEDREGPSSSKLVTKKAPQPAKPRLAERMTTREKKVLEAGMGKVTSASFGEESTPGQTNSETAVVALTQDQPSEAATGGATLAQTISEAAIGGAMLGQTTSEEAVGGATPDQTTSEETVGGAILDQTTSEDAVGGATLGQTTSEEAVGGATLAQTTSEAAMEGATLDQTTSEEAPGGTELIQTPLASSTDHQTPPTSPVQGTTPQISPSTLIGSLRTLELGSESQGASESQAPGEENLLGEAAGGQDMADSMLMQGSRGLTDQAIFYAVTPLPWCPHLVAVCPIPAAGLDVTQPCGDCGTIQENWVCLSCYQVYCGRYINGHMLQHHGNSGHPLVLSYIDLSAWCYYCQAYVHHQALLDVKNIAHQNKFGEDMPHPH
Protocol: as §1

P. falciparum 3D7 = experiment: microbe, parasite or virus in culture; assay type: cell-based; conditions: Plasmodium falciparum, 3D7, 72 h; asexual blood stages, three days incubation; n ≥ 2 in duplicate, mean ± SD; read-out: Pf3D7 IC50
Protocol: (§2) [38, 39] […] After three days of incubation at 37 °C, 5% CO2 and 5% O2 plates were frozen until analyzed by HRP2-ELISA. All compounds were evaluated in duplicate in at least two independent experiments. The IC50 was determined by nonlinear regression analysis of log concentration-response curves using the drc-package v3.0.1 [40] of R v4.0.5..

P. falciparum Dd2 = experiment: microbe, parasite or virus in culture; assay type: cell-based; conditions: Plasmodium falciparum, DD2, 72 h, read-out: PfDd2 IC50
Protocol: as §2

A2780 cells = experiment: MTT cell viability assay; assay type: cell-based; conditions: Homo sapiens, 72 h, n ≥ 3 in triplicate, mean ± SD
Protocol: Reagents were obtained from PAN Biotech, Aidenbach Germany. The cell line was cultured at 37 °C under humidified air with 5% CO2 to a confluence of 80–90% before being used for further assays.
Intrinsic cytotoxicity of test compounds was determined by an MTT assay as previously described. A2780 cells were seeded in 96-well plates (Starlab GmbH, Hamburg, Germany) at a density of 20,000 cells/well and allowed to attach for 12 h. Cells were then treated with increasing concentrations of the test compounds. After 72 h, MTT (3-(4,5-dimethylthiazol-2-yl)-2,5-diphenyltetrazolium bromide) (BioChemica, Applichem GmbH, Darmstadt, Germany) solution (5 mg/mL in phosphate-buffered saline) was added to determine cell survival. The formazan dye was dissolved in DMSO (Sigma-Aldrich, Darmstadt, Germany) after 1 h. Absorbance was measured at 570 nm and 690 nm in a Multiskan microplate photometer (Thermo Fisher Scientific, Waltham, MA, USA). Concentration-response curves were generated using the four-parameter logistic equation (GraphPad Prism 9.0, San Diego, USA), and mean IC50 values were calculated in triplicates based on at least three different experiments.

K562 cells = experiment: CellTiter-Glo cell viability assay, K562; assay type: cell-based, human; conditions: Homo sapiens, K562; CML; 72 h, CellTiter-Glo, n = 3
Protocol: (§3) Healthy individually-derived fibroblasts were cultured in DMEM supplemented with 10% FCS. Regular cell line authentication was performed short tandem repeat (STR) analysis (DNA fingerprinting), followed by comparison with the original DSMZ cell line database.
(§4) Cell viability assay was performed with leukemic cell lines after 72 h incubation with the respective inhibitors using ATP-based CellTiter-Glo luminescent assay (Promega, Madison, WI, USA).

HL60 cells = experiment: CellTiter-Glo cell viability assay, HL60; assay type: cell-based, human; conditions: Homo sapiens, HL-60; AML; 72 h, CellTiter-Glo, n = 3
Protocol: as §3, §4

NALM6 cells = experiment: CellTiter-Glo cell viability assay, NALM6; assay type: cell-based, human; conditions: Homo sapiens, NALM-6; B-ALL; 72 h, CellTiter-Glo, n = 3
Protocol: as §3, §4

HPBALL cells = experiment: CellTiter-Glo cell viability assay, HPBALL; assay type: cell-based, human; conditions: Homo sapiens, HPBALL; T-ALL; 72 h, CellTiter-Glo, n = 3
Protocol: as §3, §4

MOLM13 cells = experiment: CellTiter-Glo cell viability assay, MOLM13; assay type: cell-based, human; conditions: Homo sapiens, MOLM-13; AML; 72 h, CellTiter-Glo, n = 3
Protocol: as §3, §4

P. falciparum Dd2 R539T = experiment: In vitro P. falciparum growth inhibition assay (HRP2), Dd2 R539T; assay type: cell-based; conditions: Plasmodium falciparum, DD2, 72 h, read-out: PfDd2 R539T IC50
Protocol: Antiplasmodial activity of DHA–HDACi hybrids was evaluated against the asexual stages of the laboratory P. falciparum strains (3D7, chloroquine-sensitive strain, and Dd2, chloroquine-resistant strain, and Dd2 R539T (MRA-1255), provided by BEI Resources carrying a kelch13-mutation that conveys partial artemisinin resistance), using the histidine-rich protein 2 (HRP2) assay, as previously described. In brief: 96-well plates were precoated with the tested compounds in a three-fold serial dilution before ring-stage parasites were added in complete culture medium at a hematocrit of 1.5% and a parasitaemia of 0.05%. After three days of incubation at 37 °C, 5% CO2 and 5% O2 plates were frozen until analyzed by HRP2-ELISA. All compounds were evaluated in duplicate in at least two independent experiments. The IC50 was determined by nonlinear regression analysis of log concentration-response curves using the drc-package v3.0.1 [40] of R v4.0.5..

[1] = test system: five leukemia cell lines (K562, HL60, NALM6, HPBALL, MOLM13); experiment: CellTiter-Glo cell viability assay, panel of five leukemia cell lines; assay type: cell-based, human; conditions: number of the five leukemia cell lines in which DHA is exceeded
Protocol: as §3, §4

T1 sequence (Q13547 whole entry): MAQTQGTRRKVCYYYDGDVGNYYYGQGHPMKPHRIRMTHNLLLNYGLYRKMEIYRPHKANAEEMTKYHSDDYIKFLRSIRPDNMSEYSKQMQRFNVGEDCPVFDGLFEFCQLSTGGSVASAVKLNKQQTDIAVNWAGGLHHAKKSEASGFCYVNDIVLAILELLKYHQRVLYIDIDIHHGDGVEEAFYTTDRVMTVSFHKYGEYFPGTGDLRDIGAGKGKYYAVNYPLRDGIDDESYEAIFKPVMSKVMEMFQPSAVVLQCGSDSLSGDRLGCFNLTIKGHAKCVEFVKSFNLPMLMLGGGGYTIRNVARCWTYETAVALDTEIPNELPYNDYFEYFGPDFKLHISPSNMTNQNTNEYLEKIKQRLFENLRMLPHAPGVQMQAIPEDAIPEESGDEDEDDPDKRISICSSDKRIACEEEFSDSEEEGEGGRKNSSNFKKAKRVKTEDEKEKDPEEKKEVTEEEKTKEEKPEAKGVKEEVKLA

C[C@H]1[C@@H](Sc2ccc(CC(=O)NO)cc2)O[C@@H]2O[C@@]3(C)CC[C@H]4[C@H](C)CC[C@@H]1[C@@]24OO3 [(α)-7e, N-Hydroxy-2-(4-(((3R,5aS,6R,8aS,9R,10R,12S,12aR)-3,6,9-trimethyldecahydro-12H-3,12-epoxy[1,2]dioxepino[4,3-i]isochromen-10-yl)thio)phenyl)acetamide]
IC50 (human HDAC1 (hHDAC1)): > 10000 nM
IC50 (human HDAC6 (hHDAC6)): 1100 ± 75 nM
SI 1/6 (human HDAC6 (hHDAC6)): >9
IC50 (P. falciparum 3D7): 3.1 ± 0.7 nM
IC50 (P. falciparum Dd2): 1.8 ± 0.8 nM
IC50 (A2780 cells): 1830 ± 100 nM
IC50 (K562 cells): 770 ± 240 nM
IC50 (HL60 cells): 1620 ± 120 nM
IC50 (NALM6 cells): 440 ± 10 nM
IC50 (HPBALL cells): 3340 ± 370 nM
IC50 (MOLM13 cells): 450 ± 180 nM

C[C@H]1[C@H](Sc2ccc(CC(=O)NO)cc2)O[C@@H]2O[C@@]3(C)CC[C@H]4[C@H](C)CC[C@@H]1[C@@]24OO3 [(β)-7e, N-Hydroxy-2-(4-(((3R,5aS,6R,8aS,9R,10S,12S,12aR)-3,6,9-trimethyldecahydro-12H-3,12-epoxy[1,2]dioxepino[4,3-i]isochromen-10-yl)thio)phenyl)acetamide]
IC50 (human HDAC1 (hHDAC1)): > 10000 nM
IC50 (human HDAC6 (hHDAC6)): 1000 ± 130 nM
SI 1/6 (human HDAC6 (hHDAC6)): >10
IC50 (P. falciparum 3D7): 2.6 ± 1.3 nM
IC50 (P. falciparum Dd2): 1.6 ± 0.8 nM
IC50 (A2780 cells): 2090 ± 420 nM
IC50 (K562 cells): 1710 ± 330 nM
IC50 (NALM6 cells): 770 ± 80 nM
IC50 (HPBALL cells): 20600 ± 6130 nM
IC50 (MOLM13 cells): 640 ± 170 nM

C[C@@H]1CC[C@H]2[C@@H](C)C(OCc3ccc(/C=C/C(=O)O)cc3)O[C@@H]3O[C@@]4(C)CC[C@@H]1[C@]32OO4 (stereo partly drawn) [Compound 6a, (E)-3-(4-((((3R,5aS,6R,8aS,9R,12R,12aR)-3,6,9-Trimethyldecahydro-12H-3,12-epoxy[1,2]dioxepino[4,3-i]isochromen-10-yl)oxy)methyl)phenyl)acrylic acid]
IC50 (human HDAC1 (hHDAC1)): > 10000 nM
IC50 (human HDAC6 (hHDAC6)): > 10000 nM
IC50 (P. falciparum 3D7): 5.9 ± 0.7 nM
IC50 (P. falciparum Dd2): 5.8 ± 2.8 nM
IC50 (A2780 cells): 3380 ± 210 nM
IC50 (K562 cells): 4010 ± 600 nM
IC50 (HL60 cells): 2530 ± 560 nM
IC50 (NALM6 cells): 1310 ± 110 nM
IC50 (HPBALL cells): 23900 ± 4690 nM
IC50 (MOLM13 cells): 680 ± 90 nM

C[C@@H]1CC[C@H]2[C@@H](C)C(SCCCCCC(=O)NO)O[C@@H]3O[C@@]4(C)CC[C@@H]1[C@]32OO4 (stereo partly drawn) [Compound 7b, N-Hydroxy-6-(((3R,5aS,6R,8aS,9R,12S,12aR)-3,6,9-trimethyldecahydro-12H-3,12-epoxy[1,2]dioxepino[4,3-i]isochromen-10-yl)thio)hexanamide]
IC50 (human HDAC1 (hHDAC1)): 430 ± 46 nM
IC50 (human HDAC6 (hHDAC6)): 45 ± 5 nM
SI 1/6 (human HDAC6 (hHDAC6)): 10
IC50 (P. falciparum 3D7): 5.2 ± 0.4 nM
IC50 (P. falciparum Dd2): 6.6 ± 2.5 nM
IC50 (P. falciparum Dd2 R539T): 3 ± 1.2 nM
IC50 (A2780 cells): 1520 ± 50 nM
IC50 (K562 cells): 910 ± 320 nM
IC50 (HL60 cells): 2070 ± 30 nM
IC50 (NALM6 cells): 260 ± 10 nM
IC50 (HPBALL cells): 2410 ± 380 nM
IC50 (MOLM13 cells): 580 ± 190 nM

C[C@H]1[C@H](OCc2ccc(C(=O)NO)cc2)O[C@@H]2O[C@@]3(C)CC[C@H]4[C@H](C)CC[C@@H]1[C@@]24OO3 [Compound 7d, N-Hydroxy-4-((((3R,5aS,6R,8aS,9R,10R,12R,12aR)-3,6,9-trimethyldecahydro-12H-3,12-epoxy[1,2]dioxepino[4,3-i]isochromen-10-yl)oxy)methyl)benzamide]
IC50 (human HDAC1 (hHDAC1)): 2490 ± 240 nM
IC50 (human HDAC6 (hHDAC6)): 14 ± 2 nM
SI 1/6 (human HDAC6 (hHDAC6)): 178
IC50 (P. falciparum 3D7): 2.8 ± 1.3 nM
IC50 (P. falciparum Dd2): 2 ± 0.7 nM
IC50 (P. falciparum Dd2 R539T): 1.2 ± 0.8 nM
IC50 (A2780 cells): 1310 ± 320 nM
IC50 (K562 cells): 1000 ± 360 nM
IC50 (HL60 cells): 2410 ± 450 nM
IC50 (NALM6 cells): 360 ± 50 nM
IC50 (HPBALL cells): 6810 ± 540 nM
IC50 (MOLM13 cells): 390 ± 50 nM

C[C@@H]1CC[C@H]2[C@@H](C)C(OCc3ccc(/C=C/C(=O)Nc4ccccc4N)cc3)O[C@@H]3O[C@@]4(C)CC[C@@H]1[C@]32OO4 (stereo partly drawn) [Compound 8, (E)-N-(2-Aminophenyl)-3-(4-((((3R,5aS,6R,8aS,9R,12R,12aR)-3,6,9-trimethyldecahydro-12H-3,12-epoxy[1,2]dioxepino[4,3-i]isochromen-10-yl)oxy)methyl)phenyl)acrylamide]
IC50 (human HDAC1 (hHDAC1)): > 3330 nM
inhibition at 3.33 µM (human HDAC1 (hHDAC1)): 41%
IC50 (human HDAC6 (hHDAC6)): > 10000 nM
IC50 (P. falciparum 3D7): 2.5 ± 1.4 nM
IC50 (P. falciparum Dd2): 2.5 ± 0.14 nM
IC50 (A2780 cells): 1470 ± 980 nM
IC50 (K562 cells): 690 ± 110 nM
IC50 (HL60 cells): 1640 ± 170 nM
IC50 (NALM6 cells): 340 ± 30 nM
IC50 (HPBALL cells): 1690 ± 190 nM
IC50 (MOLM13 cells): 490 ± 80 nM
antiproliferative activity compared to DHA [1]: exceeded the antiproliferative potential of DHA in four out of five cell lines
